Experimental data taken from patent publication US5200549A, “Antipsoriatic agents” (Hoffman-La Roche Inc., priority 1991, dated 1993).

Tests used:
human keratinocytes = test: Inhibition of proliferation of cultured human keratinocytes (cell count by Coulter Counter); format: cell-based; conditions: Keratinocyte, 168 h, seven days, triplicate, read-out: Percent Inhibition on Keratinocyte Proliferation; for inhibition at 1 µM: 10^-6 M; for inhibition at 0.1 µM: 10^-7 M; for inhibition at 0.01 µM: 10^-8 M; for inhibition at 0.0001 µM: 10^-10 M
Description: Human neonatal foreskins were collected by circumcision and placed into tubes containing DMEM media. Upon arrival at the laboratory the foreskins were mechanically trimmed of excess dermis and treated with a solution of trypsin/EDTA (0.05%/0.02%) at 4° C. overnight. The epidermis was stripped from the dermis, agitated in buffered saline to remove basal keratinocytes and to separate the stratum corneum which was subsequently removed. The separated cells were centrifuged, resuspended in media, counted and the keratinocytes were plated onto a plain plastic culture dish.
The keratinocytes were plated at a density of about 10^5 cells/cm^2in 35 cm^2 dishes. The cells were grown in keratinocyte growth media (KGM®-modified MCDB 153 containing antibiotics by Clonetics of Boulder, Colo.) according to protocols originally developed by Boyce, S. T. and Ham, R. G., J. of Tissue Culture Meth. 9:83-93 (1985). The cells were grown for 5-10 days and changed every 2-3 days with keratinocyte growth media containing 1.5 mM CaCl2 (hereinafter KGM®/1.5 mM CaCl2) until cells reached a 75% confluency by visual observation. All the cultures were incubated in a humidified atmosphere of 5% CO2 at 37° C.
To establish keratinocyte cell cultures as antiproliferative assays, cells prepared as described in the foregoing were washed with PBS and removed from the culture surface with a solution of trypsin/EDTA (0.25%/0.03%). The removed cells were then centrifuged, resuspended in the KGM®/1.5 mM CaCl2 and counted. The cells were then distributed to 6 well plates at 100,000 cells per well as described in the foregoing. […] After 24-48 hours KGM®/1.5 mM CaCl2 which contained test compounds was added to the cells. The cultures maintained for seven days. The media was changed every 2-3 days.
Solutions of the test compounds were prepared as follows: 1 milligram quantities were received in amber glass vials, and stored at -20° C. Sufficient 100% ethanol was added directly to vials to obtain a millimolar solution that was subsequently aliquoted into small amber vials, overlayed with argon gas and stored at -20° C. Each stock solution was thawed once, used and discarded. Aliquots from the stock solutions were diluted directly into medium and then serially diluted from micromolar to 10^-12 M concentrations. Dilutions from 10^-7 M to 10^-12 M had ethanol added for a final concentration of 0.1%. Stock solutions were used within one month. Control cultures were treated with 0.1% ethanol.
For each experiment every culture well received the same number of cells from the same culture source. At the termination of the experiment the number of cells per was determined by the following procedure. Wells were washed twice with PBS and then incubated for approximately 10-20 minutes at 37° C. with a trypsin/EDTA solution (0.25%/03%). PBS plus 0.1% soybean trypsin inhibitor was added and the cells were suspended. An aliquot of the cells was placed into isotonic buffered saline and counted on an electronic particle counter (e.g. Coulter Counter® device by Coulter Electronics of Hialeah, Fla.).
Quantification of proliferation was done by enumerating the number of keratinocyte cells in each well using the Coulter Counter®. Results shown in Table 1 below show the percent reduction of keratinocyte cell number calculated for each of 4 concentrations of test compounds tested according to the formula: [formula]
For statistical analysis, the mean was calculated for all wells in each treatment group. Standard error was determined by nonbiased analysis using a value for the number of wells in each group, preferably N=3.
Each compound was tested in triplicate. The control (ETOH), as noted above, was 0.1% ethanol.

[1] = test system: Cholesterol Biosynthesis in HepG2 Cells; test: Inhibition of cholesterol biosynthesis in HepG2 cells (3H2O incorporated into cholesterol); format: cell-based; conditions: for activity as cholesterol biosynthesis inhibitors: HepG2 cells, in words; for IC50: Homo sapiens
Description: HepG2 cells are maintained in 175 cm^2 T flasks in Darlington Medium supplemented with 10% fetal bovine serum (FBS). Darlington Medium consists of 3 parts Minimal Essential Medium, 1 part Waymouth's MAB87/3 medium and 3×10^-8 M sodium selenite. This medium is supplemented with 100 U/ml penicillin, 100 ug/ml streptomycin and 2.5 ug/ml Fungizone. In order to establish optimal conditions for the whole cell cholesterol biosynthesis assay, preliminary experiments were performed. 0.25, 0.5, 0.75 or 1×10^6 cells were seeded into 6 well cluster plates in 2 ml of fully supplemented Darlington Medium. The serum supplemented medium was aspirated after 72 hours and replaced with serum free Darlington Medium with antibiotics. After 24, 48 or 72 hours serum free, the cells received either 0.5 or 1 mCi ^3 H2 O/ml medium. This medium was aspirated after 24 hours and the cells were washed twice with phosphate buffered saline. The cells were frozen overnight at -20° C. after which they were harvested from the wells with 1 ml of trypsin-EDTA. Extracted lipids were separated on an HPLC system; cholesterol peaks were collected and counted in a scintillation counter. Results are expressed as the dpm ^3 H2 O incorporated into cholesterol.
In the screening assay the cells received compounds at various concentrations concommitantly with ^3 H2 O. When ethanol was the vehicle, the final ethanol concentration was 0.5%, and control wells with that concentration of ethanol were used in each experiment. Results are expressed as the percent dpm ^3 H2 O incorporated into cholesterol in treated vs control wells. IC50 values are calculated using a linear regression analysis.

Row | SMILES | inhibition at 1 µM (human keratinocytes) | inhibition at 0.1 µM (human keratinocytes) | inhibition at 0.01 µM (human keratinocytes) | inhibition at 0.0001 µM (human keratinocytes) | activity as cholesterol biosynthesis inhibitors [1] | IC50 ([1]; HepG2, Test I) | IC50 ([1]; HepG2, Test II) | IC50 ([1]; HepG2, Test III) | IC50 ([1]; HepG2, Test IV)
1 | C[C@H]1C=C2C=C[C@H](C)[C@H](CC[C@@H]3C[C@@H](O)CC(=O)O3)[C@H]2[C@@H](OC(=O)C(C)(C)Oc2ccc(Cl)cc2)C1 [A, 2-(4-chlorophenoxy)-2-methylpropionic acid [1S-[1α,3α,7β,8β(2R*, 4R*),8aβ]]-1,2,3,7,8,8a-hexahydro-3,7-dimethyl-8-[2-[tetrahydro-4-hydroxy-6-oxo-2H-pyran-2-yl]ethyl]-1-naphthalenyl ester] | 49.7% | 15.2% | 6.28% | 20.9% | show activity as cholesterol biosynthesis inhibitors | 30 nM | 500 nM | 101 nM | –
2 | C[C@H]1C=C2C=C[C@H](C)[C@H](CC[C@@H]3C[C@@H](O)CC(=O)O3)[C@H]2[C@@H](OC(=O)C(C)(C)C(C)(F)F)C1 [Compound B, 3,3-difluoro-2,2-dimethylbutanoic acid, [1S-[1α,3α,7β,8β(2R*,4R*)8aβ]]-8-[2-[tetrahydro-4-hydroxy-6-oxo-2H-pyran-2-yl]ethyl]-1,2,3,7,8,8a-hexahydro-3,7-dimethyl-1-naphthalenyl ester] | 95.8% | 31.2% | 14.6% | 18% | show activity as cholesterol biosynthesis inhibitors | – | – | – | 5 nM
3 | CC[C@H](C)C(=O)O[C@H]1C[C@@H](C)C=C2C=C[C@H](C)[C@H](CC[C@@H]3C[C@@H](O)CC(=O)O3)[C@H]21 [mevinolin, reference compound] | – | – | – | – | – | 20 nM | 100 nM | 76 nM | 8 nM
